# Measurements as given in patent US4091092A, “Polymyxin F and process of producing polymyxin F” (priority 1977, dated 1978).
# What was measured:
# Experiment in all cases: Comparison of activities of polymyxins B and F, MIC
# Type in all cases: cell-based
# [1] = test system: Escherichia coli SC8599; settings: E. coli SC8599
# Description: (§1) *Organisms from the Squibb Culture Collection.
# [2] = test system: Escherichia coli SC9251; settings: E. coli SC9251
# Description: as §1
# [3] = test system: Escherichia coli SC9252; settings: Polymyxin-resistant variant of E. coli SC9251
# Description: as §1
# (§2) ^b Polymyxin-resistant variants of E. coli SC9251
# [4] = test system: Escherichia coli SC9253; settings: Polymyxin-resistant variant of E. coli SC9251
# Description: as §1, §2
# [5] = test system: Escherichia coli SC8600; settings: Polymyxin-resistant variant of E. coli SC8599
# Description: as §1
# ^a Polymyxin-resistant variant of E. coli SC8599
substance,measurement,setting,value
Polymyxin B,MIC,[1],0.1 µg/mL
same,MIC,[2],0.06 µg/mL
same,MIC,[3],18.7 µg/mL
same,MIC,[4],50.0 µg/mL
same,MIC,[5],> 100 µg/mL
